Assays:
Assay type in all cases: cell-based
S. aureus No. 1257 = assay: Bactericidal activity: bacterial culture exposed in salt solution, neutralized, inoculated on solid nutrient medium; conditions: for Bactericidal activity: growth of S. aureus test strain: CFU in 1 ml
Description: The determination is performed on E. coli No. 906 and S. aureus No. […]
(§1) The same method as described in Example 9 is used to determine the bactericidal activity of ZMA against three of four strains studied in Example 9.

fungal spores = assay: Fungicidal activity according to GOST 30028.4-2006: resistance of treated material samples to fungal spores
[1] = test system: E. coli No. 906, S. aureus No. 1257, P. aeruginosa, methicillin-resistant strain S. aureus; assay: Bactericidal activity, summary over the investigated strains
Description: (§2) The determination is performed on E. coli No. 906 and S. aureus No. 1257 test strains being usually used to study the bactericidal activity of biocides as well as on clinical strains—P. aeruginosa and methicillin-resistant strain S. aureus—at salt concentrations from 0.5 to 2% and time of exposure from 5 to 60 min.
as §1

[2] = test system: P. aeruginosa (clinical strain); assay: Bactericidal activity: bacterial culture exposed in salt solution, neutralized, inoculated on solid nutrient medium; conditions: for Bactericidal activity: growth of P. aeruginosa: 1.0 % wt., CFU in 1 ml
Description: as §2, §1

E. coli No. 906 = assay: as above; conditions: time of exposure 30 min, concentration from 1.0 to 2.5%
Description: as §2, §1

[3] = test material paper impregnated with latex SKS 65 GP, additive content 0.5 % wt.
[4] = test material paper impregnated with petrolatum base, additive content 4.7 % wt.
[5] = test material polyvinyl chloride emulsion, additive content 0.5 % wt.

Row | Compound | Bactericidal activity: growth of S. aureus test strain (S. aureus No. 1257; 2.5 % wt., exposure 30 min) [CFU] | Bactericidal activity: growth of S. aureus test strain (S. aureus No. 1257; 5 % wt., exposure 5 min) [CFU] | bactericidal activity (in words) against S. aureus No. 1257 (S. aureus No. 1257; only at concentration of 2.5% and time of exposure of 60 min) | Tolerance time (fungal spores; [3]) [days] | Tolerance time (fungal spores; [4]) [days] | Tolerance time (fungal spores; test material polyvinyl chloride emulsion, additive content 5 % wt.) [days] | bactericidal activity compared with the proposed salts ([1]; comparison of Table 3 with Table 2) | Bactericidal activity: growth of P. aeruginosa ([2]; exposure 30 min) [CFU] | bactericidal activity (in words) against P. aeruginosa ([2]; only at concentration from 2.5%) | bactericidal activity (in words) against E. coli No. 906 (E. coli No. 906) | Tolerance time (fungal spores; [5]) [days] | Bactericidal activity: growth of S. aureus test strain (S. aureus No. 1257; 1.0 % wt., exposure 15 min) [CFU] | bactericidal effect (in words) ([1]; concentration 1.0%, time of exposure from 30 min) | Bactericidal activity: growth of P. aeruginosa ([2]; exposure 5 min) [CFU]
1 | C=C(C)C(=O)[O-].CC(=O)[O-].[Zn+2] [ZMA, zinc methacrylate-acetate] | >300 | >300 | sub-bactericidal activity | 12 | 16 | 22 | substantially lower than that of the proposed salts | >300 | not completely stable bactericidal activity | stable bactericidal activity |  |  |  | 
2 | C=CC(=O)[O-].O=C([O-])c1ccccc1.[Zn+2] [Zinc acrylate-benzoate] |  |  |  |  |  |  |  |  |  |  | 11 |  |  | 
3 | Zinc methacrylate-sulfosalicylate |  |  |  | 16 | 20 |  |  |  |  |  | 16 | >300 | stable bactericidal effect against three of four investigated strains | 1

— patent US10442758B2, “Zinc or Copper (II) salt and use thereof as a biocide” (LABORATORIYA BIO ZET, LLC, priority 2013, dated 2019)
